Laboratory results: patent US10221139B2, “Inhibitors of histone demethylases” (Gilead Sciences, Inc., priority 2012, dated 2019)

Legend:
Type in all cases: biochemical
[1] = biological target: T1, PHF8 (KDM7) (Homo sapiens, UniProt Q9UPP1); experiment: Histone lysine demethylase AlphaLISA assay, PHF8; conditions: substrate BK9M2
T1 construct: KDM7 (PHF8); BRIC; 1-1322; Bac
Method: (§1) Example 2: Histone Lysine Demethylase AlphaLISA Assays for IC50 Value Determination
(§2) Assays are performed analogously to the protocol described by Perkin Elmer (Roy et al. Perkin Elmer Technical Note: AlphaLISA #12, April 2011).
(§3) Enzymes are dissolved in enzyme buffer and incubated for 10 min before 5 μL is added to 5 μL 3% DMSO solutions of compounds in enzyme buffer. Incubated for another 10 minutes, before 5 μL substrate solution is added and the reaction mixture is incubated at room temperature for the given period. 10 μL acceptor beads, suspended at given dilutions in Epigenetic Buffer (Perkin Elmer AL008) from stock, are added and the suspension is incubated 60 minutes in the dark at room temperature, before 10 μL suspension (at the given dilutions in Epigenetic Buffer) of streptavidin donor beads (Perkin Elmer 6760002) in Epigenetic Buffer is added. After incubation at room temperature in the dark the plates are read. Reaction conditions are seen in Table 2b.

[2] = biological target: T2, UTX (KDM6A) (Homo sapiens, UniProt O15550); experiment: Histone lysine demethylase AlphaLISA assay, UTX; conditions: substrate BK27M3
T2 construct: 919-1401; host or cells: E. coli
Method in brief: (§4)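 IC50 values come from an AlphaLISA signal: acceptor beads incubated 60 min in the dark, then streptavidin donor beads, both at room temperature. Beforehand, enzyme and compound were preincubated 10 min and the substrate reaction ran at room temperature.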

[3] = biological target: T3, FBXL10 (KDM2B) (Homo sapiens, UniProt Q8NHM5); experiment: Histone lysine demethylase AlphaLISA assay, FBXL10; conditions: substrate BH3K36M2
T3 construct: 1-650; purchased BPS, Bioscience, US; host or cells: Bac (baculovirus)
T3 sequence (Q8NHM5 1-650): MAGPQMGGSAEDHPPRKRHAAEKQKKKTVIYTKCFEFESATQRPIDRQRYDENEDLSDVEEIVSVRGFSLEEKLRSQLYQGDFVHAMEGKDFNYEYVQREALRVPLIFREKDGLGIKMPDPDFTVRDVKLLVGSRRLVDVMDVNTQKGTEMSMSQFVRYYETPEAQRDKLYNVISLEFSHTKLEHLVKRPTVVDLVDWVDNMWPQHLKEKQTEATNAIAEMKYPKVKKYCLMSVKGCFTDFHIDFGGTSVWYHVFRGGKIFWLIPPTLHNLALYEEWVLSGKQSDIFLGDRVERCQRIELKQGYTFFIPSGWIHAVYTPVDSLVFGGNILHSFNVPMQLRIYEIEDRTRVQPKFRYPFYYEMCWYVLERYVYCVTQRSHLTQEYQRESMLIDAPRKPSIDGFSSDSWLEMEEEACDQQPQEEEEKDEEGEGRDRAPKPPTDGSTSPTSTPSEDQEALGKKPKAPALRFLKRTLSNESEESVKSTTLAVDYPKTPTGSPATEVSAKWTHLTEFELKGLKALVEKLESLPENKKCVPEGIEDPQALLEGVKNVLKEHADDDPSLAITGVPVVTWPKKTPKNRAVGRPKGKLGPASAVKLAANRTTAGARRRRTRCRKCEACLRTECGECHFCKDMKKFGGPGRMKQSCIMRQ
Method in brief: as §4

[4] = biological target: T4, JMJD1B (KDM3B) (Homo sapiens, UniProt Q7LBC6); experiment: Histone lysine demethylase AlphaLISA assay, JMJD1B; conditions: substrate BK9M2
T4 construct: 842-1761; host or cells: Bac (baculovirus)
T4 sequence (Q7LBC6 842-1761): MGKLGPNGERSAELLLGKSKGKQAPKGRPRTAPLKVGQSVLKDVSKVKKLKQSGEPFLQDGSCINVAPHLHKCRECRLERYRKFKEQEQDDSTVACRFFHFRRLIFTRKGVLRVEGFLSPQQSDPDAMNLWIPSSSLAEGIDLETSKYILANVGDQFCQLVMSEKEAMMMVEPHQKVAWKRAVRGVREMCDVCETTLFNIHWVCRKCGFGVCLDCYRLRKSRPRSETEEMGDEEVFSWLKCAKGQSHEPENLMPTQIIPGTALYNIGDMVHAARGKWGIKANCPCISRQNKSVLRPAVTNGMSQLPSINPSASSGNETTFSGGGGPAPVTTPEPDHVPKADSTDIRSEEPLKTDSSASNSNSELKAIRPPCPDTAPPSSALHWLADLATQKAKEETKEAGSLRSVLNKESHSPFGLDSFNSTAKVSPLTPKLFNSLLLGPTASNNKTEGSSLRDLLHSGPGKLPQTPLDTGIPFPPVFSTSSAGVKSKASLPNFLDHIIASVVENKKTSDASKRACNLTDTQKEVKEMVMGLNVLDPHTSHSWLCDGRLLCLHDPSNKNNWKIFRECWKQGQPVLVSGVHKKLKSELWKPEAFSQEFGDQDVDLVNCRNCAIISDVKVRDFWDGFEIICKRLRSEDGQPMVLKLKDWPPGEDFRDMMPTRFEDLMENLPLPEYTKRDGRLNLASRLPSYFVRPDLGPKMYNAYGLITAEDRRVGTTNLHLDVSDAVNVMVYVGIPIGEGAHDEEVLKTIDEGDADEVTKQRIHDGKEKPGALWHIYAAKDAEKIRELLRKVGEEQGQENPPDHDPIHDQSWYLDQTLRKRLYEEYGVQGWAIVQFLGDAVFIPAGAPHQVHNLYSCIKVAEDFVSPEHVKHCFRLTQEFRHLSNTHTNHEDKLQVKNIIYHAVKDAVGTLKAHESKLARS
Method: as §1, §2, §3

T2 sequence (O15550 919-1401): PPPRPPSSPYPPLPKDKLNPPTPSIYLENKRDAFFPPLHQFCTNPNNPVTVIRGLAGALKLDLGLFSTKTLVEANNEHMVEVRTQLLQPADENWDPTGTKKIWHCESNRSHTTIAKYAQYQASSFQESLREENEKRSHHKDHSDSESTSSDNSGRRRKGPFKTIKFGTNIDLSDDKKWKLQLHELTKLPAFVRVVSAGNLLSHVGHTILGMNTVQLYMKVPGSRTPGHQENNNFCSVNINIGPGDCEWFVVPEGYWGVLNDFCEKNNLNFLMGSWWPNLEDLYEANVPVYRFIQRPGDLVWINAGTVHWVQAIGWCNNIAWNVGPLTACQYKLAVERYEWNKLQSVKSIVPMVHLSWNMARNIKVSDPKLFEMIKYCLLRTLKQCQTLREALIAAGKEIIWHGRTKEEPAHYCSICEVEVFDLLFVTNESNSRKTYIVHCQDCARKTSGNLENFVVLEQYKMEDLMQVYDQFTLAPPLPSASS
T1 sequence (Q9UPP1 37-477 limits assumed): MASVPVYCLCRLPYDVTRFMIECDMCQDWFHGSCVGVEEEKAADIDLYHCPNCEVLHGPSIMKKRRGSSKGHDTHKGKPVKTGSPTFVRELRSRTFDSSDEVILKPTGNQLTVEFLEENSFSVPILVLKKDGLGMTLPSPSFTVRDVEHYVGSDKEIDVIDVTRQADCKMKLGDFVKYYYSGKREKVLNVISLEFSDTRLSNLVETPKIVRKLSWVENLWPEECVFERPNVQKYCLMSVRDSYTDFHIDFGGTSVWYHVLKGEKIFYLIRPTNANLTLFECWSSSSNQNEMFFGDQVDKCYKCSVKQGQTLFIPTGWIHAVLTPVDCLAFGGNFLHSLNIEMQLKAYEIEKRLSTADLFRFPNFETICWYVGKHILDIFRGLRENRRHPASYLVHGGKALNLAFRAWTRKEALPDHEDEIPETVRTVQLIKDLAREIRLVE

| Compound | IC50 [1] | IC50 [2] | IC50 [3] | IC50 [4] |
| --- | --- | --- | --- | --- |
| 2-({[(1R)-2-hydroxy-1-{methyl[3-(1-methyl-1H-imidazol-2-yl)propyl]carbamoyl}ethyl]amino}methyl)pyridine-4-carboxylic acid [#37] | ≥ 1000 nM | ≥ 1000 nM | ≥ 1000 nM | ≥ 1000 nM |
| O=C(O)c1ccnc(CNCC(=O)N2CCCC2)c1 [#13, 2-({[2-oxo-2-(pyrrolidin-1-yl)ethyl]amino}methyl)pyridine-4-carboxylic acid] | 100 to 1000 nM | ≥ 1000 nM | < 100 nM | ≥ 1000 nM |
| COc1ccccc1CN1CCC(NC(=O)CNCc2cc(C(=O)O)ccn2)CC1 [#29, 2-({[({1-[(2-methoxyphenyl)methyl]piperidin-4-yl}carbamoyl)methyl]amino}methyl)pyridine-4-carboxylic acid] | < 100 nM | – | < 100 nM | 100 to 1000 nM |
| CC(C)=CCCC(C)CCN1CCC(NC(=O)CNCc2cc(C(=O)O)ccn2)C1 (centres unmarked) [#35, 2-{[({[1-(3,7-dimethyloct-6-en-1-yl)pyrrolidin-3-yl]carbamoyl}methyl)amino]methyl}pyridine-4-carboxylic acid] | 100 to 1000 nM | ≥ 1000 nM | 100 to 1000 nM | ≥ 1000 nM |

The next lines start with the values.

| IC50 [1] | IC50 [2] | IC50 [3] | IC50 [4] | Compound |
| --- | --- | --- | --- | --- |
| 100 to 1000 nM | ≥ 1000 nM | < 100 nM | ≥ 1000 nM | CCCCN(C)C(=O)CNCc1cc(C(=O)O)ccn1 [#14, 2-[({[butyl(methyl)carbamoyl]methyl}amino)methyl]pyridine-4-carboxylic acid] |
| ≥ 1000 nM | ≥ 1000 nM | – | ≥ 1000 nM | CCCCN1CCCC1CCNCc1cc(C(=O)O)ccn1 (centres unmarked) [#34, 2-({[2-(1-butylpyrrolidin-2-yl)ethyl]amino}methyl)pyridine-4-carboxylic acid] |
| 100 to 1000 nM | ≥ 1000 nM | 100 to 1000 nM | ≥ 1000 nM | CCN(CCN(C)C)C(=O)CNCc1cc(C(=O)O)ccn1 [#49, 2-{[({[2-(dimethylamino)ethyl](ethyl)carbamoyl}methyl)amino]methyl}pyridine-4-carboxylic acid] |
